# Measured values as given in US20070128217A1 (priority 2003, published 2007).
# Assays:
# [1] = tested on: rabbit serum obtained by immunizing a rabbit with the SARS-CoV strain Frankfurt 1; type: binding; parameters: Binding of a rabbit serum to linear peptides / Binding of a rabbit serum to looped peptides / Rabbit serum linear peptides / Rabbit serum looped peptides / Binding of a rabbit serum to linear peptides of protein N of SARS-CoV Urbani (Rabbit serum linear peptides) / Binding of a rabbit serum to looped/cyclic peptides of protein N of SARS-CoV Urbani (Rabbit serum looped peptides): unit not given here
# [2] = tested on: antibodies in sera from SARS patients (sera 1a, 1b, 2, 6, 37, 62, London, SARS-yellow, SARS-green); type: binding, human; parameters: Binding of serum 6 to linear peptides of protein X1 of SARS-CoV Urbani / Binding of serum 37 to linear peptides of protein X1 of SARS-CoV Urbani / Binding of serum 6 to looped/cyclic peptide (PEPSCAN-ELISA) / Binding of serum 37 to looped/cyclic peptide (PEPSCAN-ELISA) / Binding of serum 37 to looped/cyclic peptides of protein X1 of SARS-CoV Urbani / Binding of serum 6 to linear peptides of protein X2 / Binding of serum 37 to linear peptides of protein X2 / Binding of serum 37 to looped/cyclic peptides of protein X2 of SARS-CoV Urbani / Binding of serum 6 to linear peptides of protein M of SARS-CoV Urbani / Binding of serum 37 to linear peptides of protein M of SARS-CoV Urbani / Binding of serum 6 to looped/cyclic peptides of protein M of SARS-CoV Urbani / Binding of serum 37 to looped/cyclic peptides of protein M of SARS-CoV Urbani / Binding of serum 6 to linear peptides of protein X3 of SARS-CoV Urbani / Binding of serum 37 to linear peptides of protein X3 of SARS-CoV Urbani / Binding of serum 37 to looped/cyclic peptides of protein X3 of SARS-CoV Urbani / Binding of serum 6 to linear peptides of protein X4 of SARS-CoV Urbani / Binding of serum 37 to linear peptides of protein X4 of SARS-CoV Urbani / Binding of serum 37 to looped/cyclic peptides of protein X4 of SARS-CoV Urbani / Binding of serum 6 to linear peptides of protein X5 of SARS-CoV Urbani / Binding of serum 37 to linear peptides of protein X5 of SARS-CoV Urbani / Binding of serum 37 to looped/cyclic peptides of protein X5 of SARS-CoV Urbani / Binding of serum 6 to linear peptides of protein N of SARS-CoV Urbani / Binding of serum 37 to linear peptides of protein N of SARS-CoV Urbani / Binding of serum 6 to linear peptide (PEPSCAN-ELISA) / Binding of serum 1a to looped/cyclic peptides of protein N of SARS-CoV Urbani / Binding of serum 1b to looped/cyclic peptides of protein N of SARS-CoV Urbani / Binding of serum 2 to looped/cyclic peptides of protein N of SARS-CoV Urbani / Binding of serum 6 to looped/cyclic peptides of protein N of SARS-CoV Urbani / Binding of serum 37 to looped/cyclic peptides of protein N of SARS-CoV Urbani / Binding of serum 62 to looped/cyclic peptides of protein N of SARS-CoV Urbani / Binding of serum London to looped/cyclic peptides of protein N of SARS-CoV Urbani / Binding of serum SARS-green to looped/cyclic peptides of protein N of SARS-CoV Urbani: unit not given here
# [3] = tested on: control sera (pooled serum of ten healthy LUMC hospital workers; commercial negative donor pooled serum from the Dutch bloodbank); type: binding, human; parameters: Binding of Control serum LUMC to linear peptides / Binding of Control serum Blood-bank to linear peptides / Binding of Control serum LUMC to looped peptides / Binding of Control Serum Blood-Bank to Looped peptides / Binding of Control serum LUMC to linear peptides of the protein M of SARS-CoV Urbani / Binding of Control serum Blood-bank to linear peptides of the protein M of SARS-CoV Urbani / Binding of Control serum LUMC to looped peptides of the protein M of SARS-CoV Urbani / Binding of Control Serum Blood-Bank to Looped peptides of the protein M of SARS-CoV Urbani: unit not given here
sequence,measurement,setting,value
LKEPCPSGTYEGNSP,Rabbit serum linear peptides,[1],0.4
same,Rabbit serum looped peptides,[1],0.0
same,Binding of serum 1a to linear peptides of protein X4 of SARS-CoV Urbani,[2],0.7
same,Binding of serum 1a to looped/cyclic peptides of protein X4 of SARS-CoV Urbani,[2],0.6
same,Binding of serum 1b to linear peptides of protein X4 of SARS-CoV Urbani,[2],0.4
same,Binding of serum 1b to looped/cyclic peptides of protein X4 of SARS-CoV Urbani,[2],0.5
same,Binding of serum 2 to linear peptides of protein X4 of SARS-CoV Urbani,[2],0.4
same,Binding of serum 2 to looped/cyclic peptides of protein X4 of SARS-CoV Urbani,[2],0.5
same,Binding of serum 6 to linear peptides of protein X4 of SARS-CoV Urbani,[2],0.3
same,Binding of serum 6 to looped/cyclic peptides of protein X4 of SARS-CoV Urbani,[2],0.3
same,Binding of serum 37 to linear peptides of protein X4 of SARS-CoV Urbani,[2],0.6
same,Binding of serum 37 to looped/cyclic peptides of protein X4 of SARS-CoV Urbani,[2],0.5
same,Binding of serum 62 to linear peptides of protein X4 of SARS-CoV Urbani,[2],0.7
same,Binding of serum 62 to looped/cyclic peptides of protein X4 of SARS-CoV Urbani,[2],0.6
same,Binding of serum London to linear peptides of protein X4 of SARS-CoV Urbani,[2],0.9
same,Binding of serum London to looped/cyclic peptides of protein X4 of SARS-CoV Urbani,[2],0.3
same,Binding of serum SARS-green to linear peptides of protein X4 of SARS-CoV Urbani,[2],0.5
same,Binding of serum SARS-green to looped/cyclic peptides of protein X4 of SARS-CoV Urbani,[2],0.6
same,Binding of serum SARS-yellow to linear peptides of protein X4 of SARS-CoV Urbani,[2],0.2
same,Binding of serum SARS-yellow to looped/cyclic peptides of protein X4 of SARS-CoV Urbani,[2],0.2
same,Binding of Control Serum Blood-Bank to Looped peptides,[3],0.5
same,Binding of Control serum Blood-bank to linear peptides,[3],0.6
same,Binding of Control serum LUMC to linear peptides,[3],0.3
same,Binding of Control serum LUMC to looped peptides,[3],0.7
CIPYNSVTDTIVVTE,Binding of a rabbit serum to linear peptides,[1],0.1
same,Binding of a rabbit serum to looped peptides,[1],0.4
same,Binding of serum 1a to linear peptides of protein X1 of SARS-CoV Urbani,[2],0.7
same,Binding of serum 1b to linear peptides of protein X1 of SARS-CoV Urbani,[2],0.6
same,Binding of serum 1b to looped/cyclic peptides of protein X1 of SARS-CoV Urbani,[2],0.4
same,Binding of serum 2 to linear peptides of protein X1 of SARS-CoV Urbani,[2],0.5
same,Binding of serum 2 to looped/cyclic peptides of protein X1 of SARS-CoV Urbani,[2],0.5
same,Binding of serum 6 to linear peptides of protein X1 of SARS-CoV Urbani,[2],0.5
same,Binding of serum 6 to looped/cyclic peptides of protein X1 of SARS-CoV Urbani,[2],0.2
same,Binding of serum 37 to linear peptides of protein X1 of SARS-CoV Urbani,[2],0.7
same,Binding of serum 37 to looped/cyclic peptides of protein X1 of SARS-CoV Urbani,[2],0.6
same,Binding of serum 62 to linear peptides of protein X1 of SARS-CoV Urbani,[2],0.6
same,Binding of serum 62 to looped/cyclic peptides of protein X1 of SARS-CoV Urbani,[2],0.5
same,Binding of serum London to linear peptides of protein X1 of SARS-CoV Urbani,[2],0.3
same,Binding of serum London to looped/cyclic peptides of protein X1 of SARS-CoV Urbani,[2],0.2
same,Binding of serum SARS-green to linear peptides of protein X1 of SARS-CoV Urbani,[2],0.3
same,Binding of serum SARS-green to looped/cyclic peptides of protein X1 of SARS-CoV Urbani,[2],0.3
same,Binding of serum SARS-yellow to linear peptides of protein X1 of SARS-CoV Urbani,[2],0.5
same,Binding of serum SARS-yellow to looped/cyclic peptides of protein X1 of SARS-CoV Urbani,[2],0.4
same,Binding of Control Serum Blood-Bank to Looped peptides,[3],0.6
same,Binding of Control serum Blood-bank to linear peptides,[3],0.5
same,Binding of Control serum LUMC to linear peptides,[3],0.6
same,Binding of Control serum LUMC to looped peptides,[3],0.5
